Where a SMILES comes first, the peptide text is derived from it.
Test: Motilin immunoreactivity concentration in plasma, half-life after intravenous administration (Example 6)
Assay type: in vivo, rat
Conditions: SD, rat, plasma, 10 nmol/kg, male rats, N = 3, read-out: T½ Mean Value
Description: The experiment was carried out using rats into which polyethylene tube (PE-50 manufactured by Clay Adams) was previously inserted into thigh artery under an anesthetized condition with Nembutal. As to a test system, male SD strain rats (Nippon Charles River) of 7 weeks age were used where one group comprised 3 rats. Human type motilin or a derivative thereof in a dose of 10 nmol/kg was administered into tail vein of the rat and the blood before the administration and until 60 minutes after the administration was collected by a polyethylene tube inserted into the thigh artery. To the collected blood were added EDTA (manufactured by Dojin Laboratories) and aprotinin (manufactured by Bayer) as a stabilizer and an anti-coagulant, respectively and the plasma was separated therefrom by centrifugal separation.

SMILES | half-life [min]
CC[C@H](C)[C@H](NC(=O)[C@@H]1CCCN1C(=O)[C@@H](NC(=O)[C@@H](N)Cc1ccccc1)C(C)C)C(=O)N[C@@H](Cc1ccccc1)C(=O)N[C@H](C(=O)N[C@@H](Cc1ccc(O)cc1)C(=O)NCC(=O)N[C@@H](CCC(=O)O)C(=O)N[C@@H](CC(C)C)C(=O)N[C@@H](CCC(N)=O)C(=O)N[C@@H](CCCNC(=N)N)C(=O)N[C@@H](CO)C(=O)N1CCC[C@H]1C(=O)N[C@@H](CCC(=O)O)C(=O)N[C@@H](Cc1c[nH]cn1)C(=O)N[C@@H](CCC(N)=O)C(=O)N[C@@H](CCCNC(=N)N)C(=O)N[C@H](C(=O)N[C@@H](CCC(N)=O)C(=O)N[C@@H](CCC(N)=O)C(=O)N[C@@H](CCCNC(=N)N)C(=O)N[C@@H](CCCCN)C(=O)N[C@@H](CCC(=O)O)C(=O)N[C@@H](CO)C(=O)N[C@@H](CCCCN)C(=O)N[C@@H](CCCCN)C(=O)N1CCC[C@H]1C(=O)N1CCC[C@H]1C(=O)N[C@@H](C)C(=O)N[C@@H](CCCCN)C(=O)N[C@@H](CC(C)C)C(=O)N[C@@H](CCC(N)=O)C(=O)N1CCC[C@H]1C(=O)N[C@@H](CCCNC(=N)N)C(=O)O)C(C)C)[C@@H](C)O [Chimeric motilin (A)] (H-FVPIFTYGELQRSPEHQRVQQRKESKKPPAKLQPR-OH; N-terminus and C-terminus assumed) | 11.7
CC[C@H](C)[C@H](NC(=O)[C@@H]1CCCN1C(=O)[C@@H](NC(=O)[C@@H](N)Cc1ccccc1)C(C)C)C(=O)N[C@@H](Cc1ccccc1)C(=O)N[C@H](C(=O)N[C@@H](Cc1ccc(O)cc1)C(=O)NCC(=O)N[C@@H](CCC(=O)O)C(=O)N[C@@H](CC(C)C)C(=O)N[C@@H](CCC(N)=O)C(=O)N[C@@H](CCCNC(=N)N)C(=O)N[C@@H](CCC(=O)O)C(=O)N[C@@H](Cc1c[nH]cn1)C(=O)N[C@@H](CCC(N)=O)C(=O)N[C@@H](CCCNC(=N)N)C(=O)N[C@H](C(=O)N[C@@H](CCC(N)=O)C(=O)N[C@@H](CCC(N)=O)C(=O)N[C@@H](CCCNC(=N)N)C(=O)N[C@@H](CCCCN)C(=O)N[C@@H](CCC(=O)O)C(=O)N[C@@H](CO)C(=O)N[C@@H](CCCCN)C(=O)N[C@@H](CCCCN)C(=O)N1CCC[C@H]1C(=O)N1CCC[C@H]1C(=O)N[C@@H](C)C(=O)N[C@@H](CCCCN)C(=O)N[C@@H](CC(C)C)C(=O)N[C@@H](CCC(N)=O)C(=O)N1CCC[C@H]1C(=O)N[C@@H](CCCNC(=N)N)C(=O)O)C(C)C)[C@@H](C)O [Chimeric motilin (B)] (H-FVPIFTYGELQREHQRVQQRKESKKPPAKLQPR-OH; N-terminus and C-terminus assumed) | 11.1
CC[C@H](C)[C@H](NC(=O)[C@@H]1CCCN1C(=O)[C@@H](NC(=O)[C@@H](N)Cc1ccccc1)C(C)C)C(=O)N[C@@H](Cc1ccccc1)C(=O)N[C@H](C(=O)N[C@@H](Cc1ccc(O)cc1)C(=O)NCC(=O)N[C@@H](CCC(=O)O)C(=O)N[C@@H](CC(C)C)C(=O)N[C@@H](CCC(N)=O)C(=O)N[C@@H](CCCNC(=N)N)C(=O)N[C@@H](CCC(N)=O)C(=O)N[C@@H](CCCNC(=N)N)C(=O)N[C@H](C(=O)N[C@@H](CCC(N)=O)C(=O)N[C@@H](CCC(N)=O)C(=O)N[C@@H](CCCNC(=N)N)C(=O)N[C@@H](CCCCN)C(=O)N[C@@H](CCC(=O)O)C(=O)N[C@@H](CO)C(=O)N[C@@H](CCCCN)C(=O)N[C@@H](CCCCN)C(=O)N1CCC[C@H]1C(=O)N1CCC[C@H]1C(=O)N[C@@H](C)C(=O)N[C@@H](CCCCN)C(=O)N[C@@H](CC(C)C)C(=O)N[C@@H](CCC(N)=O)C(=O)N1CCC[C@H]1C(=O)N[C@@H](CCCNC(=N)N)C(=O)O)C(C)C)[C@@H](C)O [Chimeric motilin (C)] (H-FVPIFTYGELQRQRVQQRKESKKPPAKLQPR-OH; N-terminus and C-terminus assumed) | 8.9

Test: Motilin immunoreactivity concentration in plasma, half-life after intravenous administration (Example 8)
Conditions: male, SD, rat, in vivo, iv, 10 nmol/kg
Procedure, shortened: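 Male SD rats (7 weeks, n=3/group) received human motilin or derivative at 10 nmol/kg i.v. via tail vein; arterial blood was sampled up to 60 min, with EDTA and aprotinin added. Plasma motilin immunoreactivity was measured by competitive RIA using a rabbit polyclonal antibody against native motilin residues 1–12 and ^125I-[Tyr^7] human motilin tracer.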

SMILES | half-life [min]
CC[C@H](C)[C@H](NC(=O)[C@@H]1CCCN1C(=O)[C@@H](NC(=O)[C@@H](N)Cc1ccccc1)C(C)C)C(=O)N[C@@H](Cc1ccccc1)C(=O)N[C@H](C(=O)N[C@@H](Cc1ccc(O)cc1)C(=O)NCC(=O)N[C@@H](CCC(=O)O)C(=O)N[C@@H](CC(C)C)C(=O)N[C@@H](CCC(N)=O)C(=O)N[C@@H](CCCNC(=N)N)C(=O)N[C@H](C(=O)N[C@@H](CCC(N)=O)C(=O)N[C@@H](CCC(N)=O)C(=O)N[C@@H](CCCCN)C(=O)N[C@@H](CCCCN)C(=O)N[C@@H](C)C(=O)N[C@@H](Cc1ccc(O)cc1)C(=O)N[C@@H](CO)C(=O)N1CCC[C@H]1C(=O)N[C@@H](CC(=O)O)C(=O)N[C@@H](CCCCN)C(=O)N[C@@H](CCC(=O)O)C(=O)N[C@@H](CCCNC(=N)N)C(=O)N[C@@H](CCCCN)C(=O)N1CCC[C@H]1C(=O)N1CCC[C@H]1C(=O)N[C@@H](C)C(=O)N[C@@H](CCCCN)C(=O)N[C@@H](CC(C)C)C(=O)N[C@@H](CCC(N)=O)C(=O)N1CCC[C@H]1C(=O)N[C@@H](CCCNC(=N)N)C(=O)O)C(C)C)[C@@H](C)O [Chimeric motilin (XIII)(MGP2)] (H-FVPIFTYGELQRVQQKKAYSPDKERKPPAKLQPR-OH; N-terminus and C-terminus assumed) | 13.1
CC[C@H](C)[C@H](NC(=O)[C@@H]1CCCN1C(=O)[C@@H](NC(=O)[C@@H](N)Cc1ccccc1)C(C)C)C(=O)N[C@@H](Cc1ccccc1)C(=O)N[C@H](C(=O)N[C@@H](Cc1ccc(O)cc1)C(=O)NCC(=O)N[C@@H](CCC(=O)O)C(=O)N[C@@H](CC(C)C)C(=O)N[C@@H](CCC(N)=O)C(=O)N[C@@H](CCCNC(=N)N)C(=O)N[C@H](C(=O)N[C@@H](CCC(N)=O)C(=O)N[C@@H](CCC(N)=O)C(=O)N[C@@H](CCCCN)C(=O)N[C@@H](CCCCN)C(=O)N[C@@H](CO)C(=O)N[C@@H](CCC(=O)O)C(=O)N[C@@H](CCCCN)C(=O)N[C@@H](CCCNC(=N)N)C(=O)N1CCC[C@H]1C(=O)N1CCC[C@H]1C(=O)N[C@@H](C)C(=O)N[C@@H](CCCCN)C(=O)N[C@@H](CC(C)C)C(=O)N[C@@H](CCC(N)=O)C(=O)N1CCC[C@H]1C(=O)N[C@@H](CCCNC(=N)N)C(=O)O)C(C)C)[C@@H](C)O [Chimeric motilin (Y)(MG-BR)] (H-FVPIFTYGELQRVQQKKSEKRPPAKLQPR-OH; N-terminus and C-terminus assumed) | 11.6
CC[C@H](C)[C@H](NC(=O)[C@@H]1CCCN1C(=O)[C@@H](NC(=O)[C@@H](N)Cc1ccccc1)C(C)C)C(=O)N[C@@H](Cc1ccccc1)C(=O)N[C@H](C(=O)N[C@@H](Cc1ccc(O)cc1)C(=O)NCC(=O)N[C@@H](CCC(=O)O)C(=O)N[C@@H](CC(C)C)C(=O)N[C@@H](CCC(N)=O)C(=O)N[C@@H](CCCNC(=N)N)C(=O)N[C@H](C(=O)N[C@@H](CCC(N)=O)C(=O)N[C@@H](CCC(N)=O)C(=O)N[C@@H](CCCNC(=N)N)C(=O)N[C@@H](CCCCN)C(=O)NCC(=O)N[C@@H](CCC(=O)O)C(=O)N[C@@H](CO)C(=O)N[C@@H](CCCCN)C(=O)N[C@@H](CCCCN)C(=O)N1CCC[C@H]1C(=O)N1CCC[C@H]1C(=O)N[C@@H](C)C(=O)N[C@@H](CCCCN)C(=O)N[C@@H](CC(C)C)C(=O)N[C@@H](CCC(N)=O)C(=O)N1CCC[C@H]1C(=O)N[C@@H](CCCNC(=N)N)C(=O)O)C(C)C)[C@@H](C)O [Chimeric motilin (Z)(MG-i17G)] (H-FVPIFTYGELQRVQQRKGESKKPPAKLQPR-OH; N-terminus and C-terminus assumed) | 10.5

— patent publication US8551937B2, “Peptide having an extending action for half-life of object peptide in plasma” (priority 2008, dated 2013)
